Paper PMC7997155, “Permeability of the Cyanotoxin Microcystin-RR across a Caco-2 Cells Monolayer” (Toxins, 2021)
Starred links: 1 amine or outer side, 2 acyl side, 3 side chain; linkers in the order of their positions; H or OH if unused. Positions of bridges follow the written chain, without caps; N, C: chain ends. Non-standard residues stand in square brackets, D forms with d. Residues, ends and D or L forms follow the SMILES beside them. Adda = CO[C@@H](Cc1ccccc1)[C@@H](C)/C=C(C)/C=C/[C@H](N[*:1])[C@H](C)C(=O)[*:2]; dAsp(3S-Me) = C[C@H](C(=O)[*:3])[C@@H](N[*:1])C(=O)[*:2]; d(γGlu) = O=C(O)[C@@H](CCC(=O)[*:2])N[*:1]; NMeDha = C=C(NC)C(=O)O

Columns and labels:
[1] = test system: Caco-2 cell monolayers; conditions: Caco-2 monolayers; ref historical data generated in our laboratory; cited from earlier work
Procedure: Experiments were performed as previously described, with a few modifications, described as follows. Four solutions of MC-RR (1, 10, 25, and 55 µM) were prepared in the transport buffer (HBSS, 4-(2-Hydroxyethyl)piperazine-1-ethanesulfonic acid (HEPES) 5 mM, pH 7.4) in glass vials and loaded into the donor compartments: 300 µL in compartments A (for A–B transport experiments) and 1000 µL in compartment B (for B–A transport experiments). The final concentration of methanol in the transport buffer for all MC-RR solutions was set at 1.3%, which was previously shown not to alter the integrity ...

[2] = test system: Caco-2 cell monolayer; format: in vitro ADME, human
[3] = Binding to plastic (preliminary experiment); format: in vitro ADME
Procedure: Experiments were performed as previously described, with a few modifications, described as follows. Four solutions of MC-RR (1, 10, 25, and 55 µM) were prepared in the transport buffer (HBSS, 4-(2-Hydroxyethyl)piperazine-1-ethanesulfonic acid (HEPES) 5 mM, pH 7.4) in glass vials and loaded into the donor compartments: 300 µL in compartments A (for A–B transport experiments) and 1000 µL in compartment B (for B–A transport experiments). The final concentration of methanol in the transport buffer for all MC-RR solutions was set at 1.3%, which was previously shown not to alter the integrity of Caco-2 cell monolayers. In a preliminary experiment, the binding of MC-RR to plastic was checked and considered negligible (data not shown). At different time points (1, 2, 4, 6, and 24 h for A–B transport experiments and 1, 2, 4, and 6 h for B–A transport experiments), the whole volume of each compartment was harvested and stored in glass vials at −20 °C until analysis. Due to the toxicity of methanol 1.3% when applied in compartment B for 24 h, this time point was not performed for B–A experiments. Only Caco-2 cell monolayers with a TEER > 250 ohm.cm² before and after transport experiments were used. […]. These threshold values correspond to those preconized by the European Center for the Validation of Alternatives Methods. Four independent experiments were performed.

Molecule | Papp of lucifer yellow corresponding to a TEER value of 250 ohm.cm² [1] [nm/s] | Amount detected in the apical compartment [2] | Amount detected in the basolateral compartment [2] | Decrease of MC-RR amounts in the basolateral (donor) compartment [2] | Involvement of an active efflux mechanism (A–B versus B–A Papp) [2] | Binding to plastic [3]
lucifer yellow | 6 | – | – | – | – | –
C=C1C(=O)N[C@H](C)C(=O)N[C@@H](CCCNC(=N)N)C(=O)N[C@@H](C(=O)O)[C@H](C)C(=O)N[C@@H](CCCNC(=N)N)C(=O)N[C@@H](/C=C/C(C)=C/[C@H](C)[C@H](Cc2ccccc2)OC)[C@H](C)C(=O)N[C@@H](C(=O)O)CCC(=O)N1C [MC-RR, microcystin-RR] (R[Adda][d(γGlu)][NMeDha][dA]R[dAsp(3S-Me)]-OH; lactam N-7) | – | below the lower LOQ | below the lower LOQ | 25 % of the loaded amount | no involvement of an active efflux mechanism | negligible
